For one data set, the system named is mouse Factor 11 mRNA. The data set can be described thus: Cross-reactive antisense inhibition of murine Factor 11 in primary mouse hepatocytes, 100 nM (Example 9). The class given is cell-based. The conditions noted are these: ~24 hours. As for the experimental part:
Antisense oligonucleotides targeted to a murine factor 11 nucleic acid were tested for their effects on Factor 11 mRNA in vitro. Cultured primary mouse hepatocytes at a density of 10,000 cells per well were treated with 100 nM antisense oligonucleotide. After a treatment period of approximately 24 hours, RNA was isolated from the cells and mouse Factor 11 mRNA levels were measured by quantitative real-time PCR. Factor 11 mRNA levels were adjusted according to total RNA content, as measured by RIBOGREEN. Results are presented as percent inhibition of Factor 11, relative to untreated control cells.
The chimeric antisense oligonucleotides in Tables 16 were designed as 5-10-5 MOE gapmers. The gapmers are 20 nucleotides in length, wherein the central gap segment is comprised of 10 2′-deoxynucleotides and is flanked on both sides (in the 5′ and 3′ directions) by wings comprising 5 nucleotides each. Each nucleotide in the 5′ wing segment and each nucleotide in the 3′ wing segment has a 2′-MOE modification. The internucleoside linkages throughout each gapmer are phosphorothioate (P=S) linkages. All cytidine residues throughout each gapmer are 5-methylcytidines. “Mouse target start site” indicates the 5′-most nucleotide to which the gapmer is targeted. “Mouse target stop site” indicates the 3′-most nucleotide to which the gapmer is targeted. All the mouse oligonucleotides listed show cross-reactivity between the mouse Factor 11 mRNA (GENBANK Accession No. NM_028066.1), incorporated herein as SEQ ID NO: 6 and the human Factor 11 mRNA (GENBANK Accession No. NM_000128.3), incorporated herein as SEQ ID NO: 1. “Human Target Start Site” indicates the 5′-most nucleotide in the human mRNA (GENBANK Accession No. NM_000128.3) to which the antisense oligonucleotide is targeted. “Human Target Stop Site” indicates the 3′-most nucleotide in the human mRNA (GENBANK Accession No. NM_000128.3) to which the antisense oligonucleotide is targeted. “Number of mismatches” indicates the mismatches between the mouse oligonucleotide and the human mRNA sequence.

In the next data set the test system is murine Factor 11 mRNA. In words: In vivo antisense inhibition of murine Factor 11 mRNA in liver (Example 10). The note with it: BALB/c mice, relative to PBS control. As for the experimental part: BALB/c mice were injected with 5 mg/kg, 10 mg/kg, 25 mg/kg, or 50 mg/kg of ISIS 404057 or ISIS 404071 twice a week for 3 weeks. A control group of mice was injected with phosphate buffered saline (PBS) twice a week for 3 weeks. Mice were sacrificed 5 days after receiving the last dose. Whole liver was harvested for RNA analysis and plasma was collected for clotting analysis (PT and aPTT) and protein analysis.
RNA was extracted from liver tissue for real-time PCR analysis of Factor 11. […] Results are presented as percent inhibition of Factor 11, relative to control.

For data set [1] the following is noted: rat, in vivo, sc, 50 mg/kg.
The conditions of data set [2]: rat, in vivo, sc, 50 mg/kg. The source holds these as a separate data set.
For data set [3] the following is noted: mouse, in vivo, sc, 50 mg/kg.
For data set [4] the following is noted: mouse, in vivo, sc, 50 mg/kg. This is another data set of the same source.
For data set [5] the following is noted: mouse, in vivo, sc, 50 mg/kg. The source holds these as a separate data set.
The conditions of data set [6]: rat, in vivo, sc, 50 mg/kg. The source holds these as a separate data set.
[7] abbreviates: 5 mg/kg twice a week for 3 weeks.
Where [8] appears, read: 10 mg/kg twice a week for 3 weeks.
Setting [9] is: 25 mg/kg twice a week for 3 weeks.
Setting [10] is: 50 mg/kg twice a week for 3 weeks.

This note sets out measurements from patent US20230263822A1, “MODULATION OF FACTOR 11 EXPRESSION” (Ionis Pharmaceuticals, Inc., priority 2008, published 2023).

Where two headings read alike, the source gives them in different places. Strand notation (5' to 3'): a small letter for the sugar, then the base; units joined by * are phosphorothioate-linked, units joined directly phosphodiester-linked; [ ] holds rarer units or linkages, { } end groups; capitals alone tell only the bases. e = 2'-O-(2-methoxyethyl) (MOE); [5mC] = 5-methylcytosine; d = 2'-deoxy (DNA)

For “404050 (eT*eG*e[5mC]*eT*eT*dG*dA*dA*dG*dG*dA*dA*dT*dA*dT*e[5mC]*e[5mC]*eA*eG*eA; antisense) [compound 404050]”, the “% Inhibition of mouse Factor 11 mRNA levels” value in the data set with mouse Factor 11 mRNA worked out at 82%.
The same measure, in the same setting: under “404054 (eT*eA*eG*eT*eT*d[5mC]*dA*dT*dG*d[5mC]*d[5mC]*d[5mC]*dT*dT*d[5mC]*eA*eT*eG*eT*e[5mC]; antisense) [compound 404054]” stands 45%; under “404055 (eT*eG*eT*eT*eA*dT*dA*dG*dT*dT*d[5mC]*dA*dT*dG*d[5mC]*e[5mC]*e[5mC]*eT*eT*e[5mC]; antisense) [compound 404055]”, 27%.
As to “404057 (eT*e[5mC]*e[5mC]*eT*eG*dG*d[5mC]*dA*dT*dT*d[5mC]*dT*d[5mC]*dG*dA*eG*e[5mC]*eA*eT*eT) [compound 404057]”, the “% inhibition of murine Factor 11 mRNA” value is listed as 40% with murine Factor 11 mRNA (setting [7]), 64% with murine Factor 11 mRNA (setting [8]), 85% in the data set with murine Factor 11 mRNA (setting [9]) and 95% with murine Factor 11 mRNA (setting [10]).
As to “404066 (eA*eA*eT*eG*eT*d[5mC]*d[5mC]*d[5mC]*dT*dG*dA*dT*dA*d[5mC]*dA*eA*eG*e[5mC]*e[5mC]*eA; antisense) [compound 404066]”, the “% Inhibition of mouse Factor 11 mRNA levels” value in the data set on mouse Factor 11 mRNA came out at 37%.
For the substance “404067 (antisense eG*eG*eG*eA*eA*dA*dA*dT*dG*dT*d[5mC]*d[5mC]*d[5mC]*dT*dG*eA*eT*eA*e[5mC]*eA) [compound 404067]”, the “% Inhibition of mouse Factor 11 mRNA levels” value in the data set with mouse Factor 11 mRNA is recorded as 39%.
Take “404071 (antisense eT*eG*eG*eT*eA*dA*dT*d[5mC]*d[5mC]*dA*d[5mC]*dT*dT*dT*d[5mC]*eA*eG*eA*eG*eG) [compound 404071]”: the “% inhibition of murine Factor 11 mRNA” value in the data set on murine Factor 11 mRNA (setting [7]) came out at 72%; in the data set on murine Factor 11 mRNA (setting [8]), 82%; in the data set on murine Factor 11 mRNA (setting [9]), 93%; in the data set with murine Factor 11 mRNA (setting [10]), 96%.
In the case of “404083 (antisense eT*eG*eT*eG*e[5mC]*dA*dG*dA*dG*dT*d[5mC]*dA*d[5mC]*d[5mC]*dT*eG*e[5mC]*e[5mC]*eA*eT) [compound 404083]”, the “% Inhibition of mouse Factor 11 mRNA levels” value in the data set on mouse Factor 11 mRNA is recorded as 47%.
As for “404087 (antisense eT*eT*e[5mC]*eT*eT*dG*dA*dA*d[5mC]*d[5mC]*d[5mC]*dT*dG*dA*dA*eG*eA*eA*eA*eG) [compound 404087]”, the “% Inhibition of mouse Factor 11 mRNA levels” value in the data set on mouse Factor 11 mRNA is listed as 29%.
The same measure, in the same setting: under “404089 (antisense eT*eG*eA*eA*eT*dT*dA*dT*d[5mC]*dA*dT*dT*dT*d[5mC]*dT*eT*eG*eA*eA*e[5mC]) [compound 404089]” stands 6%; under “404090 (antisense eT*eG*eA*eT*e[5mC]*dA*dT*dG*dA*dA*dT*dT*dA*dT*d[5mC]*eA*eT*eT*eT*e[5mC]) [compound 404090]”, 42%.
As for “ISIS 445498: 5-8-5 or 6-8-6 MOE microwalk gapmer (Table 44) (antisense GGTGCACAGTTTCTGGCAGG; sugars from the 5' end e6 d8 e6, backbone and methylation of C not given here)”, in data set [1], the BUN was determined as 25 mg/dL, the Creatinine was 0.5 mg/dL and the Urine protein/creatinine ratio was 3.1. Moreover, in data set [2], the HCT is 49%, the Lymphocyte was determined as 89%, the Neutrophil came to 9% and the Platelets is 1061 nL⁻¹. In data set [2], this substance showed an RBC of 8.5 pL⁻¹, a WBC of 13 nL⁻¹, a hemoglobin of 14.7 g/dL and a monocytes of 2.0%. In data set [3], this substance gave an ALT of 66 IU/L, an AST of 102 IU/L, an Albumin of 3.4 and a Bilirubin of 0.24 mg/dL. In addition, the BUN in data set [4] was 28 mg/dL. Besides, in data set [5], the HCT stood at 47%, the Lymphocyte was 3241, the Neutrophil came out at 1197 and the Platelets worked out at 802. In data set [5], the RBC is listed as 9.4, the WBC is recorded as 5 and the hemoglobin was 13.9 g/dL. Further, in data set [6], the ALT came out at 417 IU/L, the AST was 124 IU/L, the Albumin is listed as 3.7 and the Bilirubin is on record as 0.14 mg/dL.
In data set [3], “ISIS 445503: 5-8-5 or 6-8-6 MOE microwalk gapmer (Table 44) (antisense GCATTGGTGCACAGTTTCTG; sugars from the 5' end e6 d8 e6, backbone and methylation of C not given here)” gave an ALT of 1314 IU/L, an AST of 852 IU/L, an Albumin of 3.4 and a Bilirubin of 0.28 mg/dL. This substance also had a BUN in data set [4] of 29 mg/dL. Further, in data set [5], the HCT came out at 46%, the Lymphocyte was found to be 6436, the Neutrophil turned out to be 1475 and the Platelets was found to be 309. Also, in data set [5], the RBC is 9.2, the WBC is given as 8 and the hemoglobin is listed as 13.6 g/dL.
“ISIS 445504: 5-8-5 or 6-8-6 MOE microwalk gapmer (Table 44) (antisense GGCATTGGTGCACAGTTTCT; sugars from the 5' end e6 d8 e6, backbone and methylation of C not given here)”: in data set [1], the BUN turned out to be 26 mg/dL, the Creatinine was 0.4 mg/dL and the Urine protein/creatinine ratio is on record as 4.3. Moreover, in data set [2], the HCT is reported as 50%, the Lymphocyte is 87%, the Neutrophil amounted to 10% and the Platelets is 776 nL⁻¹. In data set [2], this substance returned an RBC of 8.9 pL⁻¹, a WBC of 16 nL⁻¹, a hemoglobin of 14.7 g/dL and a monocytes of 2.0%. Further, in data set [3], the ALT worked out at 71 IU/L, the AST came to 107 IU/L, the Albumin turned out to be 3.4 and the Bilirubin is reported as 0.17 mg/dL. The substance further returned a BUN in data set [4] of 29 mg/dL. In data set [5], this substance gave an HCT of 49%, a Lymphocyte of 3578, a Neutrophil of 959 and a Platelets of 826. In addition, in data set [5], the RBC came to 9.6, the WBC came out at 5 and the hemoglobin was determined as 14.7 g/dL. In data set [6], this substance displayed an ALT of 206 IU/L, an AST of 86 IU/L, an Albumin of 3.5 and a Bilirubin of 0.11 mg/dL.
With “ISIS 445532: 5-8-5 or 6-8-6 MOE microwalk gapmer (Table 44) (antisense CGGCATTGGTGCACAGTT; sugars from the 5' end e5 d8 e5, backbone and methylation of C not given here)”, in data set [3], the ALT turned out to be 395 IU/L, the AST is reported as 360 IU/L, the Albumin was determined as 2.9 and the Bilirubin is 0.20 mg/dL. In data set [4], this substance registered a BUN of 23 mg/dL. In data set [5], this substance gave an HCT of 48%, a Lymphocyte of 5490, a Neutrophil of 1116 and a Platelets of 689. In data set [5], this substance registered an RBC of 9.7, a WBC of 7 and a hemoglobin of 14.8 g/dL.
